“Also recorded” adds a separate entry of the source.
Experiments:
[1] = system: aortic valve interstitial cells; assay: BMP2-treated aortic valve interstitial cells with or without Ataciguat for 24 hours (pVASP239, Sp7); format: cell-based; details: in vitro
Procedure: Overexpression of DDAH1 reduces endogenous inhibitors of NOS, increases NO production, and increases sGC signaling, ultimately resulting in slower progression of CAVS.
To determine whether induction of sGC signaling reduced osteogenic signaling in vitro, aortic valve interstitial cells were treated with BMP2 in the presence or absence of Ataciguat (HMR1766, 5-Chloro-2-[[(5-chloro-2-thienyl)sulfonyl]amino]-N-[4-(4-morpholinylsulfonyl)phenyl]benzamide) for 24 hours.

[2] = system: aortic valve interstitial cells; assay: Western blotting of BMP, TGFβ and sGC signaling in valve interstitial cells treated with BMP2, TGFβ1 or vehicle, with or without Ataciguat, for 18 hours; format: cell-based, human and mouse; details: Ataciguat 1 μmol, 37° C.
Procedure: FIG. 4 is a graph plotting p-VASP^239 levels detected in aortic valve interstitial cells treated with BMP2 (100 ng/mL), TGFβ1 (10 ng/mL), or neither (control; CTRL) in the presence or absence of Ataciguat (1 μmol) for 18 hours at 37° C.
FIG. 5 is a graph plotting p-Smad1/5/8 levels detected in aortic valve interstitial cells treated with BMP2 (100 ng/mL), TGFβ1 (10 ng/mL), or neither (control; CTRL) in the presence or absence of Ataciguat (1 μmol) for 18 hours at 37° C.
FIG. 6 is a graph plotting Sp7 levels detected in aortic valve interstitial cells treated with BMP2 […], or neither (control; CTRL) in the presence or absence of Ataciguat (1 μmol) for 18 hours at 37° C.
FIG. 7 is a graph plotting p-Smad2 levels detected in aortic valve interstitial cells treated with BMP2 […], or neither (control; CTRL) in the presence or absence of Ataciguat (1 μmol) for 18 hours at 37° C.
Additional experiments were performed to confirm that Ataciguat activates sGC signaling, attenuates BMP2 signaling, attenuates BMP2 target induction, and attenuates fibrogenic signaling in valve interstitial cells. In brief, cells were maintained in Dulbecco's Modified Eagle's Medium (DMEM) with 20% fetal bovine serum (FBS) and expanded to confluence in 6 well plates in a standard 5% CO2 incubator at 37° C. Cells were then treated with BMP2 (100 ng/mL), TGFβ1 (10 ng/mL), or vehicle (phosphate buffered saline) in the absence or presence of Ataciguat (1 μmol) for 18 hours. Cells were lysed using standard protein lysis buffer containing protease and phosphatase inhibitors, and Western blotting was performed to evaluate changes in protein levels of BMP, TGFβ, and sGC signaling.

## O=C(Nc1ccc(S(=O)(=O)N2CCOCC2)cc1)c1cc(Cl)ccc1NS(=O)(=O)c1ccc(Cl)s1 [Ataciguat, 5-Chloro-2-[[(5-chloro-2-thienyl)sulfonyl]amino]-N-[4-(4-morpholinylsulfonyl)phenyl]benzamide]
[1]; FIG. 2A
  sGC signaling (indicated by pVASP239 levels): activated sGC signaling
[1]; FIG. 2B
  osteogenic signaling (BMP2-induced Sp7 expression): profoundly suppressed osteogenic signaling
[2]; BMP2 100 ng/mL, TGFβ1 10 ng/mL or control, FIG. 4, replicated in human (HAV-001, HAV-002, HAV-003) and mouse (MAV1, MAV2, MAV4) cell lines
  sGC signaling (p-VASP239 levels): effectively activated sGC signaling
[2]; BMP2 100 ng/mL, TGFβ1 10 ng/mL or control, FIG. 5, replicated in human and mouse cell lines
  BMP2 signaling (p-Smad1/5/8 levels): attenuated canonical BMP2 signaling
[2]; BMP2, TGFβ1 or control, FIG. 6, replicated in human and mouse cell lines
  BMP2 target induction (Sp7 levels): attenuated BMP target induction; also recorded: attenuated BMP2 target induction
[2]; BMP2, TGFβ1 or control, FIG. 7, replicated in human and mouse cell lines
  fibrogenic signaling (p-Smad2 levels): partially attenuated fibrogenic signaling
